Experimental findings from ChEMBL document CHEMBL1275520, “Metronidazole lacks antibacterial activity in guinea pigs infected with Mycobacterium tuberculosis” (Antimicrob Agents Chemother, 2008) are described below.

The test system of series [1] is Mycobacterium tuberculosis. Put plainly: Antibacterial activity against Mycobacterium tuberculosis infected in Hartley guinea pig lung assessed as reduction in bacteria induced progression of inflammation at 30 mg/kg after 4 weeks by histological analysis relative to control. Type of series: functional, organism-based. Set-up: dose 30 mg/kg.
The subject of series [2] is Mycobacterium tuberculosis. The experiment in a line: Antibacterial activity against Mycobacterium tuberculosis infected in Hartley guinea pig lung assessed as reduction in bacterial load at 30 mg/kg. Type of series: functional, organism-based. Also noted: dose 30 mg/kg.
The subject of series [3] is Mycobacterium tuberculosis. The experiment in a line: Antibacterial activity against Mycobacterium tuberculosis infected in Hartley guinea pig lung assessed as reduction in development of new secondary lesions at 30 mg/kg after 4 weeks by histological analysis relative to control. Type of series: functional, organism-based. Also noted: dose 30 mg/kg.
Series [4] deals with Mycobacterium tuberculosis. The experiment in a line: Antibacterial activity against Mycobacterium tuberculosis infected in Hartley guinea pig spleen assessed as reduction in bacterial load at 30 mg/kg. Also noted: dose 30 mg/kg. Format: functional, organism-based.
The nature of series [5]: Toxicity in Hartley guinea pig lung assessed as formation of TB lesions by histological analysis. Set-up: species or system Cavia porcellus. The conditions noted are these: in vivo.
Series [6] concerns Mycobacterium tuberculosis. The experiment in a line: Antibacterial activity against Mycobacterium tuberculosis infected in Hartley guinea pig lung assessed as reduction in development of new secondary lesions at 100 mg/kg after 4 weeks by histological analysis relative to control. Type of series: functional, organism-based. Also noted: dose 100 mg/kg.
The test system of series [7] is Mycobacterium tuberculosis. Put plainly: Antibacterial activity against Mycobacterium tuberculosis infected in Hartley guinea pig spleen assessed as reduction in bacterial load at 100 mg/kg. Type of series: functional, organism-based. Also noted: dose 100 mg/kg.
Series [8] concerns Mycobacterium tuberculosis. The experiment in a line: Antibacterial activity against Mycobacterium tuberculosis infected in Hartley guinea pig lung assessed as reduction in bacterial load at 100 mg/kg. Format: functional, organism-based. Set-up: dose 100 mg/kg.
Series [9] relates to Mycobacterium tuberculosis. Put plainly: Antibacterial activity against Mycobacterium tuberculosis infected in Hartley guinea pig lung assessed as reduction in bacteria induced progression of inflammation at 100 mg/kg after 4 weeks by histological analysis relative to control. Also noted: dose 100 mg/kg. Type of series: functional, organism-based.

Molecules are shown by their SMILES. Activity calls are given as the source filed them. The rule behind the calls is not given here.

Turning to `NNC(=O)c1ccncc1`, the outcome in series [1], in series [2], in series [3] and in series [4] was Active.

Turning to `Cc1ncc([N+](=O)[O-])n1CCO` [METRONIDAZOLE], the Activity result in series [5] is recorded as “Toxic”. The result in series [6], in series [7], in series [8] and in series [9] was inactive.
